No end group written: not given here.
Key:
gastrointestinal transit = test: Murine gastrointestinal transit (GIT) assay, charcoal front; type: in vivo, mice; details: for gastrointestinal transit rate: SEQ ID NO:4 and Zelnorm 0.1 mg/kg, FIG. 3a/3b; for intestinal transit rate versus dosage: recombinantly synthesized peptides, FIG. 4a
Description: In order to determine whether the peptides increase the rate of gastrointestinal transit, the peptides and controls were tested using a murine gastrointestinal transit (GIT) assay (Moon et al. Infection and Immunity 25:127, 1979). In this assay, charcoal, which can be readily visualized in the gastrointestinal tract is administered to mice after the administration of a test compound. The distance traveled by the charcoal is measured and expressed as a percentage of the total length of the […].
Mice were fasted with free access to water for 12 to 16 hours before the treatment with peptide or control buffer. The peptides were orally administered at 1 μg/kg-1 mg/kg of peptide in buffer (20 mM Tris pH 7.5) 7 minutes before being given an oral dose of 5% Activated Carbon (Aldrich 242276-250G). Control mice were administered buffer only before being given a dose of Activated Carbon. After 15 minutes, the mice were sacrificed and their intestines from the stomach to the cecum were dissected. The total length of the intestine as well as the distance traveled from the stomach to the charcoal front was measured for each animal and the results are expressed as the percent of the total length of the intestine traveled by the charcoal front. All results are reported as the average of 10 mice±standard deviation. A comparison of the distance traveled by the charcoal between the mice treated with peptide versus the mice treated with vehicle alone was performed using a Student's t test and a statistically significant difference was considered for P<0.05. P-values are calculated using a two-sided T-Test assuming unequal variances.
The identical experiment was performed to determine if SEQ ID NO:3 is effective in a chronic dosing treatment regimen. Briefly, 8 week old CD1 female mice are dosed orally once a day for 5 days with either SEQ ID NO:3 (0.06 mg/kg or 0.25 mg/kg in 20 mM Tris pH 7.5) or vehicle alone (20 mM Tris pH 7.5). On the 5th day, a GIT assay is performed identical to that above except 200 μl of a 10% charcoal solution is administered. […] The results are shown side by side with acute dosing (1 day).

intestinal secretion = test: Suckling mouse model of intestinal secretion (SuMi assay); type: in vivo; details: suckling mice
Description: In this model a test compound is administered to suckling mice that are between 7 and 9 days old. After the mice are sacrificed, the gastrointestinal tract from the stomach to the cecum is dissected (“guts”). The remains (“carcass”) as well as the guts are weighed and the ratio of guts to carcass weight is calculated. If the ratio is above 0.09, one can conclude that the test compound increases intestinal secretion. […] The effect of Zelnorm® was also studied.

intestinal GC-C receptor = target: T1, intestinal GC-C receptor (Homo sapiens, UniProt P25092); test: Intestinal GC-C receptor activity assay (cyclic GMP by EIA in T84 cells); type: cell-based; details: chemically synthesized peptides, FIG. 2
T1 construct: host or cells: T84 human colon carcinoma cells
T1 sequence (P25092 24-1073): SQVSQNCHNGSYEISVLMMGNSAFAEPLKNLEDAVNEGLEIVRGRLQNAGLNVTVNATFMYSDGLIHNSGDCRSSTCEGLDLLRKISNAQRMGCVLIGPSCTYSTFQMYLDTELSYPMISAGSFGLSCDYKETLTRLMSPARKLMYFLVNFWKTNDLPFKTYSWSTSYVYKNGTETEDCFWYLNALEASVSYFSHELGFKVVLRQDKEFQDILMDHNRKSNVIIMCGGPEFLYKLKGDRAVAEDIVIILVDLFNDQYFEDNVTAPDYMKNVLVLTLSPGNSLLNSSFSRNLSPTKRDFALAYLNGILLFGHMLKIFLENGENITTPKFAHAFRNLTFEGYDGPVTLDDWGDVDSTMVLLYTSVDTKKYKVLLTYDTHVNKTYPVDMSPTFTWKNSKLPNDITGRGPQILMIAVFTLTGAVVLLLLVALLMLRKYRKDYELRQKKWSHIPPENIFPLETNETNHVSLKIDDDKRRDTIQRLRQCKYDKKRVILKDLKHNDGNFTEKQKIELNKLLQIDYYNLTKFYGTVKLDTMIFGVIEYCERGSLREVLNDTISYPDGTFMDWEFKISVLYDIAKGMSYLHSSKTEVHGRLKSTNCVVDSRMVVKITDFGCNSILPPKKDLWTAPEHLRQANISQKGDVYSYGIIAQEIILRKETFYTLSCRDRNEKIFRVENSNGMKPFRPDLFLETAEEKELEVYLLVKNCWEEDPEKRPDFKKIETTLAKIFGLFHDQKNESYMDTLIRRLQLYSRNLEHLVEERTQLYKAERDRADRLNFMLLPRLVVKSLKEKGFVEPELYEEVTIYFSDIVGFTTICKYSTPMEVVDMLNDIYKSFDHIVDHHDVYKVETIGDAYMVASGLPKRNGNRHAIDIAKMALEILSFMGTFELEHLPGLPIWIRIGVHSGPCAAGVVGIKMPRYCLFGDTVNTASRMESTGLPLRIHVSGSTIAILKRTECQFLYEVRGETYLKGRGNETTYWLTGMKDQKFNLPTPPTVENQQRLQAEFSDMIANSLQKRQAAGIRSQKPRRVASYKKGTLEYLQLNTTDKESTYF
Description: The ability of SEQ ID NO:5, SEQ ID NO:4, and SEQ ID NO:3 to activate the intestinal GC-C receptor was assessed in an assay employing the T84 human colon carcinoma cell line (American Type Culture Collection (Bethesda, Md.)). For the assays cells were grown to confluency in 24-well culture plates with a 1:1 mixture of Ham's F12 medium and Dulbecco's modified Eagle's medium (DMEM), supplemented with 5% fetal calf serum and were used at between passages 54 and 60.
Briefly, monolayers of T84 cells in 24-well plates were washed twice with 1 ml/well DMEM, then incubated at 37° C. for 10 min with 0.45 ml DMEM containing 1 mM isobutylmethylxanthine (IBMX), a cyclic nucleotide phosphodiesterase inhibitor. Test peptides (50 μl) were then added and incubated for 30 minutes at 37° C. The media was aspirated and the reaction was then terminated by the addition of ice cold 0.5 ml of 0.1N HCl. The samples were held on ice for 20 minutes and then evaporated to dryness using a heat gun or vacuum centrifugation. The dried samples were resuspended in 0.5 ml of phosphate buffer provided in the Cayman Chemical Cyclic GMP EIA kit (Cayman Chemical, Ann Arbor, Mich.). Cyclic GMP was measured by EIA according to procedures outlined in the Cayman Chemical Cyclic GMP EIA kit.

[1] = target: T2, GC-C receptors found in rat intestinal mucosa (Rattus norvegicus, UniProt P23897); parameters: Intestinal mucosa was extruded from the intestine by gentle pressure; from tissue; host or cells: rat small-intestinal epithelial cells (mucosa), used as a cell suspension; details: same assay, observed by Giannella et al.; cited from earlier work
T2 sequence (P23897 23-1072): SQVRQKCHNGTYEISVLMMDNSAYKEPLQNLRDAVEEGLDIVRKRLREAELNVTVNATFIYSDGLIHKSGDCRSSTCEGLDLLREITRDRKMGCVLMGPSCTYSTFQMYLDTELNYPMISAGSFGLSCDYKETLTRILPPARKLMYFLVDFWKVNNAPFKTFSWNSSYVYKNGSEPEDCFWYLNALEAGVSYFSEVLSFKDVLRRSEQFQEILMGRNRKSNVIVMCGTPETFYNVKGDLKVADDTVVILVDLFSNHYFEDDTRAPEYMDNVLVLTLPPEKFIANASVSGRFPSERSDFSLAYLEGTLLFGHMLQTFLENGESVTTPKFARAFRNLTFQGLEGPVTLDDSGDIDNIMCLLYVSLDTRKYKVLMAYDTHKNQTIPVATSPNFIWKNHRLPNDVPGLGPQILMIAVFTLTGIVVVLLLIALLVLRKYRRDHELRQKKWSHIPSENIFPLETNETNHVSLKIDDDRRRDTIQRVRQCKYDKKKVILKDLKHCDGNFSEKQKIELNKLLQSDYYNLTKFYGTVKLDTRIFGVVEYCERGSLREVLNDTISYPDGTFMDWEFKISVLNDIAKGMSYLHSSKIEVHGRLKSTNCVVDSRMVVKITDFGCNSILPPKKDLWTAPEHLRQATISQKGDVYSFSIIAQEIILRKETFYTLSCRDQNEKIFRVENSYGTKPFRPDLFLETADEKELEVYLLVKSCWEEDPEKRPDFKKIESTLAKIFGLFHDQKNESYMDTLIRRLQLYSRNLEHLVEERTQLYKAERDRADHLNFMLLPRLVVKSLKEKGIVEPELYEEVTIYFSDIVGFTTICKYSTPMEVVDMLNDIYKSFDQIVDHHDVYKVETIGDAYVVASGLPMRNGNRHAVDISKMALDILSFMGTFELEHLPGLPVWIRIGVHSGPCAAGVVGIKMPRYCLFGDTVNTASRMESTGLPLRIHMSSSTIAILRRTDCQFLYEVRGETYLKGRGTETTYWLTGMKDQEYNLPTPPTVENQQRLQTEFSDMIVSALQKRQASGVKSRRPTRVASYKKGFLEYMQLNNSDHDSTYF

PBQ-induced writhing = test: Phenylbenzoquinone (PBQ)-induced writhing model
[2] = recombinant peptides, dose response, FIG. 6a

Molecule | gastrointestinal transit rate (gastrointestinal transit; acute, oral, mice) | effect in mouse gastrointestinal motility assay upon chronic dosing (gastrointestinal transit; oral once a day for 5 days, CD1 female mice, FIG. 4c) | intestinal secretion (guts to carcass weight ratio) (intestinal secretion; 0.2 mg/kg, FIG. 5) | activity in GC-C receptor activity assay (intestinal GC-C receptor) | intestinal transit rate versus Tris buffer or equivalent dose of Zelnorm (gastrointestinal transit; acute, oral, mice, chemically synthesized peptides, FIG. 4b) | intestinal transit rate versus dosage (gastrointestinal transit; acute, oral, mice) | intestinal secretion (guts to carcass weight ratio) (intestinal secretion; dose response, FIG. 5a/5b) | intestinal secretion (guts to carcass weight ratio) (intestinal secretion; [2]) | Kd [1] [nM] | antinociceptive effect relative to indomethacin (PBQ-induced writhing; mouse PBQ writhing, visceral pain model) | writhings compared to the vehicle control (PBQ-induced writhing; mouse, oral, 1 mg/kg dose, FIG. 8a)
[H]/N=C(/NCCCCC)N/N=C/c1c[nH]c2ccc(OC)cc12 [Zelnorm®, tegaserod] | increase gastrointestinal transit rate | effective | does not increase intestinal secretion |  |  |  |  |  |  |  | 
NSSNYCCELCCNPACTGCY [SEQ ID NO:4, Asn Ser Ser Asn Tyr Cys Cys Glu Leu Cys Cys Asn Pro Ala Cys Thr Gly Cys Tyr] | increase gastrointestinal transit rate |  |  | activity comparable to SEQ ID NO:4 | increase intestinal transit rates more than either Tris buffer alone or an equivalent dose of Zelnorm® | intestinal transit rate increases with an increasing dosage | increase intestinal secretion | increase intestinal secretion | ~13 |  | 
NSSNYCCEYCCNPACTGCY (cysteine pairing not given here) [SEQ ID NO:5] |  |  |  |  |  | intestinal transit rate increases with an increasing dosage |  | increase intestinal secretion |  | antinociceptive effects in this visceral pain model comparable to the intermediate doses of indomethacin | Significant reductions in writhings

Source: US7772188B2, “Methods and compositions for the treatment of gastrointestinal disorders” (priority 2003, dated 2010)
